# Assay results: patent US20200165194A1, “ADDITIVE COMPOSITION FOR CULTURE MEDIUM, ADDITIVE COMPOUND FOR CULTURE MEDIUM, AND METHOD FOR CULTURE OF CELLS OR TISSUE USING SAME” (NISSAN CHEMICAL CORPORATION, priority 2017, published 2020)
# What was measured:
# [1] = test system: a plurality of cancer cell lines; test: Various human cancer cells-1, summary over the cell lines (Experimental Example 5); format: cell-based; settings: cancer cell lines under three-dimensional conditions
# From the text: Various human-derived cancer cells were precultured (single layer culture) in respective media shown below. […]
# CD34, CD73, CD29 of hMSC = test: Human mesenchymal stem cells-1: cell surface markers by FACS after 3D culture (Experimental Example 9); format: cell-based; settings: for CD34+ (negative rate) / CD29+ (positive rate) / CD73+ (positive rate): hMSC after 3D culture, 10 μM, 7 days; for CD34+ (negative rate): no addition 0.9%; for CD29+ (positive rate): no addition 94.6%; for CD73+ (positive rate): no addition 99.9%; for undifferentiated state of hMSCs (in words): surface markers CD34, CD73, CD29 did not change
# Method: Human mesenchymal stem cells (hMSC, manufactured by TOYOBO) were precultured by a single layer culture method (2D) using an MF-medium mesenchymal stem cell proliferation medium (manufactured by TOYOBO). In three-dimensional culture method (3D), hMSC were suspended in a medium composition added with deacylated gellan gum, and seeded in a […] flat bottom Ultr-low Attachment surface plate (manufactured by Corning Incorporated, #3471) at 1.2×10^5 cells/2 mL/well. In 2D, hMSC were suspended in a deacylated gellan gum-free medium composition, and seeded in a 6-well flat bottom plate (manufactured by Corning Incorporated, #3516) at 4.0×10^4 cells/2 mL/well. […] As a control, DMSO was added at a final concentration of 0.1%. Seven days later, in the three-dimensional culture method, cells were collected from the wells, washed with PBS, and the supernatant was removed. Then, a trypsin 0.25 w/v % trypsin-1 mmol/L EDTA (ethylenediaminetetraacetic acid) solution (manufactured by Wako Pure Chemical Industries, Ltd.) was added and the cells were incubated at 37° C. for 2-5 min to disperse the spheres into single cells. The medium was added, and the mixture was centrifuged to remove the supernatant. Thereafter, the cells were resuspended in the same medium, a part was suspended in Trypan Blue (manufactured by Wako Pure Chemical Industries, Ltd.), and the number of viable cells was counted using automatic cell counter TC20 (manufactured by BIO-RAD).
# CD34 antibody (APC, manufactured by BD Bioscience), CD73 (BV421, manufactured by BD Bioscience), CD29 (BB515, manufactured by BD Bioscience) were added to the above-mentioned cell suspension, and the mixture was incubated on ice for 30 min. The cells were washed twice with 2% SM buffer (2% FBS/PBS), SM containing 1 μg/mL of Propidium Iodide (PI) was added, and the mixture was analyzed with FACSAria (manufactured by Becton Dickinson). The cell number with compound non-addition (control) was taken as 1, and relative value with addition of each compound is calculated in the fifteenth table. The positive rates or negative rates of CD34, CD73, and CD29 of cells after three-dimensional culture (3D) under the conditions with no addition or addition of the compound are shown in the sixteenth table.
SMILES,proliferation activity (in words) [1],"CD34+ (negative rate) (CD34, CD73, CD29 of hMSC)","CD29+ (positive rate) (CD34, CD73, CD29 of hMSC)","CD73+ (positive rate) (CD34, CD73, CD29 of hMSC)","undifferentiated state of hMSCs (in words) (CD34, CD73, CD29 of hMSC)"
CCC(=NNC(=O)C(CC)Nc1ccccc1)c1ccc(O)c(C)c1O (stereo not shown) [k-1:H-7],promoted proliferation activity in a plurality of cancer cell lines,3%,94.6%,100%,promote cell proliferation while maintaining undifferentiated state of hMSCs
CC/C(=N\NC(=O)Nc1ccccc1)c1ccc(O)c(C)c1O [k-1:H-10],promoted proliferation activity in a plurality of cancer cell lines,0.7%,87.6%,99.1%,promote cell proliferation while maintaining undifferentiated state of hMSCs
